Experimental data taken from the supplement of paper PMC10307832.

Tests used:
Test in all cases: relative viability (nuclei count vs DMSO), 5 days (fraction); higher = more cells survive
Daporinad + Palbociclib = compound: O=C(/C=C/c1cccnc1)NCCCCC1CCN(C(=O)c2ccccc2)CC1 [Daporinad] + CC(=O)c1c(C)c2cnc(Nc3ccc(N4CCNCC4)cn3)nc2n(C2CCCC2)c1=O [Palbociclib] (partner 0.5 µM)
Method in brief: (§1)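 Values are medians from duplicate plates. Each reflects relative viability, defined as the nuclei count of treated wells over that of vehicle wells. Lung cancer cell lines in 1536-well plates were pin-tool dosed one day after seeding with one drug alone or with a fixed anchor-drug dose plus five library-drug doses (not always all listed) in √10 steps, then fixed, stained and imaged at 4× after 5 days.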

Daporinad + AZD7762 = compound: O=C(/C=C/c1cccnc1)NCCCCC1CCN(C(=O)c2ccccc2)CC1 [Daporinad] + NC(=O)Nc1cc(-c2cccc(F)c2)sc1C(=O)N[C@H]1CCCNC1 [AZD7762] (partner 0.2 µM)
Method in brief: as §1

R406 + Alpelisib = compound: COc1cc(Nc2ncc(F)c(Nc3ccc4c(n3)NC(=O)C(C)(C)O4)n2)cc(OC)c1OC [R406] + Cc1nc(NC(=O)N2CCC[C@H]2C(N)=O)sc1-c1ccnc(C(C)(C)C(F)(F)F)c1 [Alpelisib] (partner 2 µM)
Method in brief: as §1

Daporinad + Bortezomib = compound: O=C(/C=C/c1cccnc1)NCCCCC1CCN(C(=O)c2ccccc2)CC1 [Daporinad] + CC(C)C[C@H](NC(=O)[C@H](Cc1ccccc1)NC(=O)c1cnccn1)B(O)O [Bortezomib] (partner 0.002 µM)
Method in brief: as §1

| Cell Line | relative viability (Daporinad + Palbociclib; first compound 0.0005 µM) | relative viability (Daporinad + Palbociclib; first compound 0.001581 µM) | relative viability (Daporinad + Palbociclib; first compound 0.005 µM) | relative viability (Daporinad + Palbociclib; first compound 0.01581 µM) | relative viability (Daporinad + AZD7762; first compound 0.0005 µM) | relative viability (Daporinad + AZD7762; first compound 0.001581 µM) | relative viability (Daporinad + AZD7762; first compound 0.005 µM) | relative viability (Daporinad + AZD7762; first compound 0.01581 µM) | relative viability (R406 + Alpelisib; first compound 0.08 µM) | relative viability (R406 + Alpelisib; first compound 0.253 µM) | relative viability (R406 + Alpelisib; first compound 0.8 µM) | relative viability (R406 + Alpelisib; first compound 8 µM) | relative viability (Daporinad + Bortezomib; first compound 0.0005 µM) | relative viability (Daporinad + Bortezomib; first compound 0.001581 µM) | relative viability (Daporinad + Bortezomib; first compound 0.005 µM) | relative viability (Daporinad + Bortezomib; first compound 0.01581 µM) | relative viability (R406 + Alpelisib; first compound 2.53 µM) |
| --- | --- | --- | --- | --- | --- | --- | --- | --- | --- | --- | --- | --- | --- | --- | --- | --- | --- |
| NCI-H522 | 1.06 | 1.06 | 0.746 | 0.908 | 0.808 | 1.13 | 0.816 | 0.538 | – | – | – | – | – | – | – | – | – |
| HCC-15 | 0.692 | 0.815 | 0.829 | 0.755 | 1.16 | 1.33 | 1.26 | 1.15 | 0.859 | 0.887 | 0.981 | 0.753 | 0.989 | 1.13 | 1.07 | 1.04 | – |
| A-427 | 0.475 | 0.533 | 0.487 | 0.473 | 0.83 | 0.765 | 0.759 | 0.529 | 1.14 | 1.17 | 1.12 | 0.843 | 0.952 | 1.02 | 0.974 | 0.784 | 0.928 |
| NCI-H2228 | 0.67 | 0.745 | 0.529 | 0.811 | – | – | – | – | 0.702 | 0.735 | 0.9 | 0.161 | 0.788 | 1.2 | 1.12 | 1.11 | 0.618 |
| NCI-H1734 | 0.361 | 0.404 | 0.356 | 0.328 | 0.546 | 0.521 | 0.51 | 0.328 | 0.67 | 0.732 | 0.748 | 0.465 | 0.937 | 0.967 | 0.888 | 0.333 | 0.521 |
| NCI-H441 | 0.186 | 0.209 | 0.212 | 0.23 | 1.34 | 1.34 | 1.52 | 1.25 | – | 0.843 | 0.878 | 0.296 | – | 0.476 | 0.486 | 0.443 | – |
| PC-3 [JPC-3] | 0.548 | 0.54 | 0.535 | 0.553 | 0.734 | 0.829 | 0.9 | 0.836 | 0.988 | 1.15 | 1.13 | 0.699 | 0.85 | 0.864 | 0.844 | 0.827 | 0.902 |
| NCI-H1915 | 0.569 | 0.508 | 0.61 | 0.521 | 0.667 | 0.742 | 0.716 | 0.71 | 1.08 | 1.12 | 1.04 | 1.01 | 0.987 | 1.05 | 0.961 | 0.883 | 1.02 |
| NCI-H1666 | 0.653 | 0.679 | 0.624 | 0.69 | 0.773 | 0.874 | 0.941 | 0.851 | 1.11 | 0.953 | 1.02 | 0.385 | 0.846 | 0.93 | 0.9 | 0.742 | 0.786 |
| HCC-366 | 0.451 | – | 0.432 | 0.37 | 0.255 | – | 0.247 | 0.268 | 0.41 | 0.439 | 0.441 | 0.0784 | 0.971 | 1.1 | 1.12 | 1.04 | – |
| NCI-H2170 | 0.351 | 0.39 | 0.394 | 0.381 | 0.807 | 0.974 | 0.979 | 0.92 | 0.783 | 0.773 | 0.904 | 0.714 | – | – | – | – | 0.576 |
